Assays:
Type in all cases: in vivo
Solanum nigrum (SOLNI) [1] = assay: Post-emergence biological efficacy, glasshouse pot test; conditions: 312 h, 1,000 g/ha, evaluated after 13 days, 100=total damage, 0=no damage, read-out: Percentage damage caused to weed species, post-emergence, SOLNI
Method: (§1) Seeds of Alopecurus myosuroides (ALOMY), Setaria faberi (SETFA), Echinochloa crus-galli (ECHCG), Solanum nigrum (SOLNI), Amaranthus retroflexus (AMARE) and Ipomea hederaceae (IPOHE) were sown in standard soil in pots. After cultivation for 8 days under controlled conditions in a glasshouse (at 24/16° C., day/night; 14 hours light; 65% humidity), the plants were sprayed with an aqueous spray solution derived from the formulation of the technical active ingredient in acetone/water (50:50) solution containing 0.5% Tween 20 (polyoxyethylene sorbitan monolaurate, CAS RN 9005-64-5) to give a final dose of 1000 or 250 g/ha of test compound. The test plants were then grown on under controlled conditions in a glasshouse (at 24/16° C., day/night; 14 hours light; 65% humidity) and watered twice daily. After 13 days the test was evaluated (100=total damage to plant; 0=no damage to plant).

[2] = test system: Amaranthus retroflexus (AMARE); assay: as above; conditions: 312 h, 1,000 g/ha, evaluated after 13 days, 100=total damage, 0=no damage, read-out: Percentage damage caused to weed species, post-emergence, AMARE
Method: as §1

[3] = test system: Echinochloa crus-galli (ECHCG); assay: as above; conditions: 312 h, 1,000 g/ha, evaluated after 13 days, 100=total damage, 0=no damage, read-out: Percentage damage caused to weed species, post-emergence, ECHCG
Method: as §1

[4] = test system: Alopecurus myosuroides (ALOMY); assay: as above; conditions: 312 h, 1,000 g/ha, evaluated after 13 days, 100=total damage, 0=no damage, read-out: Percentage damage caused to weed species, post-emergence, ALOMY
Method: as §1

[5] = test system: Ipomea hederaceae (IPOHE); assay: as above; conditions: Ipomoea hederacea, 312 h, 1,000 g/ha, evaluated after 13 days, 100=total damage, 0=no damage, read-out: Percentage damage caused to weed species, post-emergence, IPOHE
Method: as §1

Setaria faberi (SETFA) [6] = assay: as above; conditions: 312 h, 1,000 g/ha, evaluated after 13 days, 100=total damage, 0=no damage, read-out: Percentage damage caused to weed species, post-emergence, SETFA
Method: as §1

Solanum nigrum (SOLNI) [7] = assay: Pre-emergence biological efficacy, glasshouse pot test; conditions: 312 h, 1,000 g/ha, evaluated after 13 days, 100=total damage, 0=no damage, read-out: Percentage damage caused to weed species, pre-emergence, SOLNI
Method: (§2) Seeds of Alopecurus myosuroides (ALOMY), Setaria faberi (SETFA), Echinochloa crus-galli (ECHCG), Solanum nigrum (SOLNI), Amaranthus retroflexus (AMARE) and Ipomea hederaceae (IPOHE) were sown in standard soil in pots. After cultivation for one day under controlled conditions in a glasshouse (at 24/16° C., day/night; 14 hours light; 65% humidity), the plants were sprayed with an aqueous spray solution derived from the formulation of the technical active ingredient in acetone/water (50:50) solution containing 0.5% Tween 20 (polyoxyethylene sorbitan monolaurate, CAS RN 9005-64-5) to give a final dose of 1000 or 250 g/ha of test compound. The test plants were then grown under controlled conditions in the glasshouse (at 24/16° C., day/night; 14 hours light; 65% humidity) and watered twice daily. After 13 days the test was evaluated (100=total damage to plant; 0=no damage to plant).

[8] = test system: Amaranthus retroflexus (AMARE); assay: as above; conditions: 312 h, 1,000 g/ha, evaluated after 13 days, 100=total damage, 0=no damage, read-out: Percentage damage caused to weed species, pre-emergence, AMARE
Method: as §2

[9] = test system: Echinochloa crus-galli (ECHCG); assay: as above; conditions: 312 h, 1,000 g/ha, evaluated after 13 days, 100=total damage, 0=no damage, read-out: Percentage damage caused to weed species, pre-emergence, ECHCG
Method: as §2

[10] = test system: Alopecurus myosuroides (ALOMY); assay: as above; conditions: 312 h, 1,000 g/ha, evaluated after 13 days, 100=total damage, 0=no damage, read-out: Percentage damage caused to weed species, pre-emergence, ALOMY
Method: as §2

[11] = test system: Ipomea hederaceae (IPOHE); assay: as above; conditions: Ipomoea hederacea, 312 h, 1,000 g/ha, evaluated after 13 days, 100=total damage, 0=no damage, read-out: Percentage damage caused to weed species, pre-emergence, IPOHE
Method: as §2

Setaria faberi (SETFA) [12] = assay: as above; conditions: 312 h, 1,000 g/ha, evaluated after 13 days, 100=total damage, 0=no damage, read-out: Percentage damage caused to weed species, pre-emergence, SETFA
Method: as §2

SMILES | pest or weed control at 1000 g/ha (Solanum nigrum (SOLNI) [1]) | pest or weed control at 1000 g/ha [2] | pest or weed control at 1000 g/ha [3] | pest or weed control at 1000 g/ha [4] | pest or weed control at 1000 g/ha [5] | pest or weed control at 1000 g/ha (Setaria faberi (SETFA) [6]) | pest or weed control at 1000 g/ha (Solanum nigrum (SOLNI) [7]) | pest or weed control at 1000 g/ha [8] | pest or weed control at 1000 g/ha [9] | pest or weed control at 1000 g/ha [10] | pest or weed control at 1000 g/ha [11] | pest or weed control at 1000 g/ha (Setaria faberi (SETFA) [12])
COC(=O)c1nc(Cl)cc(NCc2ccco2)c1C1CC1 [Compound 26-7, 6-chloro-3-cyclopropyl-4-[(furan-2-ylmethyl)-amino]-pyridine-2-carboxylic acid methyl ester] | 70% | 40% | 0% | 0% | 30% | 0% | 80% | 60% | 10% | 10% | 70% | 10%
C=Cc1c(NCc2ccco2)cc(Cl)nc1C(=O)O [Compound 26-11, 6-chloro-3-ethenyl-4-[(furan-2-ylmethyl)-amino]-pyridine-2-carboxylic acid] | 100% | 100% | 80% | 80% | 80% | 90% | 100% | 100% | 90% | 100% | 100% | 100%
C=Cc1c(NCc2ccco2)cc(Cl)nc1C(=O)OC [Compound 26-12, 6-Chloro-3-ethenyl-4-[(furan-2-ylmethyl)-amino]-pyridine-2-carboxylic acid methyl ester] | 100% | 100% | 80% | 80% | 70% | 90% | 100% | 100% | 90% | 90% | 90% | 100%
COC(=O)c1nc(Cl)cc(NCc2ccco2)c1Br [Compound 26-17, 3-Bromo-6-chloro-4-[(furan-2-ylmethyl)-amino]-pyridine-2-carboxylic acid methyl ester] | 90% | 100% | 60% | 70% | 60% | 80% | 100% | 100% | 50% | 50% | 100% | 80%
COC(=O)c1nc(Cl)cc(NCc2ccco2)c1C [Compound 26-19, 6-chloro-4-[(furan-2-ylmethyl)-amino]-3-methyl-pyridine-2-carboxylic acid methyl ester] | 90% | 100% | 30% | 60% | 40% | 70% | 100% | 100% | 0% | 70% | 40% | 70%

Reference: patent publication US20120100990A1, “4 -AMINOPICOLINATES AND THEIR USE AS HERBICIDES” (SYNGENTA CROP PROTECTION LLC, priority 2009, published 2012)
